Measured values published in publication PMC11636681, “Pharmacokinetics and pharmacodynamics of antibacterial peptide NZX in Staphylococcus aureus mastitis mouse model” (Applied Microbiology and Biotechnology, 2024).
Marks after values point to notes of the source that are not given here. Positions of bridges follow the written chain, without caps; N, C: chain ends. Residues, ends and D or L forms follow the SMILES beside them.

Tests used:
S. aureus ATCC 43300 [1] = assay: In vitro dose-killing curves (24 h); assay type: cell-based, Staphylococcus aureus
Protocol: The in vitro dose-killing curves of NZX against the test S. aureus strains were conducted as previous described (Brinch et al. [2010]), with some modification. The S. aureus cells in mid-log phage were diluted. Then, the killing curves of NZX against S. aureus strains were carried out in the 48-well plate. Specifically, a volume of 50 μL NZX (0.6–150 μM) was mixed with 450 μL of the above diluted bacterial suspension (5 × 10^5 CFU/mL), and the mixtures were incubated in the Micro Oscillator for 24 h (600 rpm, 37 °C). Subsequently, the bacteria suspensions were plated on MHA medium to count. Lincomycin and ceftiofur were set as antibiotic controls, respectively. PBS was negative control. Results were expressed as the average of three independent experiments data.

S. aureus ATCC 43300 [2] = assay: Mouse mastitis model, bacterial counts in mammary tissues; assay type: in vivo; details: 24 h after treatment, vs PC group
Excerpt: The 7 to 8-weeks old ICR mice (80 females, 40 males) were housed in independent ventilated cages, and feed with autoclaved laboratory food and water. Female mice in heat were put into the cage of males (females:males, 2:1) overnight and checked for vaginal plugs at the following morning to induce pregnancy. ICR-lactating mice were used at 6 to 8 days after the birth of the offspring. The mouse mastitis model was established as previously described (Li et al. [2017]). Mice were randomly divided into nine groups: NC group (uninfected group), PC group (infected but without treatment), NZX groups (25, 50, 100, 200 and 400 μg/gland, respectively), lincomycin group (100 μg/gland), and ceftiofur group (100 μg/gland). Each experimental group has six independent experiments with three mice. Specially, the pups were removed 1 h before the intramammary injection of both L4 (on the left) and R4 (on the right) abdominal mammal glands. A 100 μL of S. aureus strains (1 × 10^6 CFU/mL) was administrated to mice in PC, NZX, lincomycin and ceftiofur groups, and the same volume of sterile physiological saline was administrated to mice in NC group. Glands of 3 h post-infection were injected with sterile physiological saline, NZX, lincomycin, or ceftiofur. The mice were euthanized after the treatment for 24 h, and their mammary glands were dissected, weighed, and homogenized. The animal experiments were performed according to the Animal Care and Use Committee of the Feed Research Institute, Chinese Academy of Agricultural Sciences (Permit Number: AEC-CAAS-20090609) in accordance with the Guidelines for Animal Experimentation.
After mouse sacrifice, one part of mammary tissue was taken for bacterial count, and the other part was used for the histopathological analysis. Specifically, tissues were aseptically collected immediately from the dead mice, weighted, homogenized with sterile physiological saline (1:1, W:V). Next, the homogenates were serially diluted (ten-fold dilutions) in physiological saline, plated on MHA plate, and then cultured overnight at 37 °C. The bacterial number on each plate was counted and the results were expressed as Log10 CFU per gram of mammary tissues. In addition, mammary tissues were fixed in 4% paraformaldehyde, then embedded in paraffin, cut into 5 μm sections, and later stained by hematoxylin–eosin (H&E). The stained sections were observed under a light microscope (× 200) for pathological morphology and scoring of mammary tissues (Schmidt et al. [1992]).

[3] = Stability of NZX in mammary gland tissue homogenate; assay type: in vitro ADME; details: mouse, 100 μg/mL in mammary gland tissue homogenate, 37 °C, SPE then HPLC–UV 280 nm, mean peak area / initial value, read-out: residual amount of NZX in mammary tissue homogenate
Protocol: (§1) A 0.5 g of mammary tissue or milk were weighed, homogenized, and transferred to a 10 mL polypropylene centrifuge tube, respectively, extracted sequentially by adding into a 3 mL of 0.1 M of McFarland buffer and 1% trichloroacetic acid (TCA), and cleaned by a C18 solid-phase extraction (SPE) cartridge (Oasis MAX 3 cc 60 mg and Oasis HLB 3 cc 60 mg, respectively, Waters, USA). Afterwards, a 2 mL of 45% acetonitrile with 2% formic acid and 3 mL of 45% acetonitrile were used to elute the columns, respectively, the collected eluents were freeze-dried and dissolved in 200 µL of deionized water and filtered by a […] sterile filter membrane before the analysis of high-performance liquid chromatography-ultraviolet (HPLC–UV). The HPLC–UV with a C18 reverse-phase column (ZORBAX Eclipse Plus C18 4.6 mm × 250 mm, 5 µm) conditions for detecting NZX were as follows: the mobile phase consisted of A: 0.1% trifluoroacetate […] in acetonitrile and B: 0.1%TFA in water; the injection volume was 40 μL; the wavelength of UV detector was 280 nm; flow rate was 1.0 mL/min; the column temperature was 35 °C, and the elution was conducted with a linear gradient of 20–45% mobile phase A for 16 min. The linear relationship, limits of detection (LOD), limits of quantitation (LOQ), accuracy and precision were determined by adding the known concentrations of NZX into the extracted blank matrix of mammary gland. Each concentration was conducted three times.
(§2) A 100 μg/mL of NZX was suspended in mammary gland tissue homogenate or milk, respectively, and then incubated at 37 °C for 0, 8, 16 and 24 h, respectively. Afterwards, samples were pretreated and quantified as the above methods. The results were expressed as a ratio of the mean peak area measured at different times divided by the mean value of the initial value.

Stability of NZX in milk = assay type: in vitro ADME; details: 100 μg/mL in milk, 37 °C, SPE then HPLC–UV 280 nm, mean peak area / initial value, read-out: retention rate in milk
Protocol: as §1, §2

S. aureus ATCC 25923 = details: 1 × 10^5 CFU/mL, 16–18 h, 37 °C, value marked a, already published, ref Zheng et al. [2022]; cited from earlier work
Excerpt: Table 1 The MICs, MBCs and MPCs of NZX and antibiotics against S. aureus strains (μM) | column: S. aureus ATCC 25923 / MIC

S. aureus ATCC 43300 [4] = details: 1 × 10^5 CFU/mL, 16–18 h, 37 °C, value marked a, already published, ref Zheng et al. [2022]; cited from earlier work
Excerpt: Table 1 The MICs, MBCs and MPCs of NZX and antibiotics against S. aureus strains (μM) | column: S. aureus ATCC 43300 / MIC

Row | Compound | EC50 (S. aureus ATCC 43300 [1]; Staphylococcus aureus, ATCC43300, 50% reduction in Log10 CFU at 24 h between minimum and maximum) [nM] | Cs (S. aureus ATCC 43300 [1]; concentration causing no apparent growth in Log10 CFU at 24 h vs initial inoculum) [µM] | bacteria reduction in mammary tissues (S. aureus ATCC 43300 [2]; 100 μg/gland intramammary) [Log10 CFU/g] | bacteria reduction in mammary tissues (S. aureus ATCC 43300 [2]; 400 μg/gland intramammary) [Log10 CFU/g] | bacteria reduction in mammary tissues (S. aureus ATCC 43300 [2]; range over 25 ~ 400 μg/gland intramammary) | remaining at 8 h, 100 μg/mL ([3]; 8 h) [%] | remaining at 16 h, 100 μg/mL ([3]; 16 h) [%] | remaining at 24 h, 100 μg/mL ([3]; 24 h) [%] | remaining at 8 h, 100 μg/mL (Stability of NZX in milk; 8 h) [%] | remaining at 16 h, 100 μg/mL (Stability of NZX in milk; 16 h) [%] | remaining at 24 h, 100 μg/mL (Stability of NZX in milk; 24 h) [%] | MIC (S. aureus ATCC 25923) | MIC (S. aureus ATCC 43300 [4])
1 | CO/N=C(\C(=O)N[C@@H]1C(=O)N2C(C(=O)O)=C(CSC(=O)c3ccco3)CS[C@H]12)c1csc(N)n1 [Ceftiofur] | 910 | 0.91 | 4.82 | – | – | – | – | – | – | – | – | – | –
2 | CC[C@H](C)[C@@H]1NC(=O)[C@H](CO)NC(=O)[C@H](CCCCN)NC(=O)[C@@H]2CSSC[C@@H](C(=O)N[C@@H](Cc3ccc(O)cc3)C(=O)O)NC(=O)[C@H](CCCCN)NC(=O)[C@@H]3CSSC[C@H](NC(=O)[C@H](CCC(N)=O)NC(=O)[C@H]([C@@H](C)CC)NC(=O)[C@H](CC(=O)O)NC(=O)[C@H](CC(=O)O)NC(=O)[C@H](CCC(=O)O)NC(=O)[C@H](CO)NC(=O)[C@H](Cc4c[nH]c5ccccc45)NC(=O)[C@@H]4CCCN4C(=O)CNC(=O)[C@H](CC(N)=O)NC(=O)[C@@H](NC(=O)CNC(=O)[C@H](Cc4ccccc4)NC(=O)CN)CSSC[C@H](NC(=O)[C@H](Cc4ccc(O)cc4)NC(=O)CNC(=O)CNC(=O)[C@H](CCCCN)NC(=O)[C@H](Cc4ccc(O)cc4)NC(=O)CNC(=O)[C@H](CCCCN)NC1=O)C(=O)N[C@@H](C)C(=O)N[C@@H](CCCNC(=N)N)C(=O)NCC(=O)NCC(=O)N[C@@H](Cc1ccccc1)C(=O)N[C@@H](C(C)C)C(=O)N3)C(=O)N[C@@H](Cc1c[nH]cn1)C(=O)N[C@@H](CC(N)=O)C(=O)N[C@@H](Cc1c[nH]cn1)C(=O)N2 [NZX] (H-GFGCNGPWSEDDIQCHNHCKSIKGYKGGYCARGGFVCKCY-OH; disulfide 4-30, 15-37, 19-39; N-terminus and C-terminus assumed) | – | – | 3.47 | 8.81 | 0.66 ~ 8.81 Log10 CFU/g | 72.2 | 48.4 | 47.9 | 103 | 91.8 | 85.4 | 0.46^a μM | 0.23^a μM
